Source: patent US20130158362A1 (INFACARE PHARMACEUTICAL CORPORATION, priority 2011, published 2013)

What was measured:
[1] = tested on: term and late preterm subjects with hyperbilirubinemia; test: Phase 2b trial: adverse events; type: in vivo, human
Text: Safety measurements included adverse events (AEs), hematology and chemistry laboratory tests, vital sign measurements, physical examinations, dermatological assessments, hearing assessments, ophthalmological assessments, neurological assessments, and quantitative electrocardiograms (ECGs).
Safety population: Defined as all subjects who were enrolled in the clinical study and received IMP. Subjects were summarized according to the treatment received.
Analysis of Safety Parameters: Descriptive statistical methods were used to summarize safety parameters based on the safety population. All treatment-emergent adverse events (TEAEs) were summarized. Tabular summaries were also presented for all TEAEs considered potentially related to the IMP, TEAEs by intensity, serious adverse events (SAEs), and AEs leading to discontinuation.

[2] = Phase 2b trial: pharmacokinetics of stannsoporfin in plasma after IM injection; type: in vivo, human
Text: Pharmacokinetic Assessments: Subjects were stratified into 2 groups having different sampling times to better characterize the PK curves.

Substance: tin IV mesoporphyrin IX dichloride [Stannsoporfin]
- AE Erythema toxicum: subjects, n (%) ([1]; 3.0 mg/kg IM): 3 (16.7%)
- AE Erythema: subjects, n (%) ([1]; 3.0 mg/kg IM): 1 (5.6%)
- AE Flushing: subjects, n (%) ([1]; 3.0 mg/kg IM): 1 (5.6%)
- AE Hemangioma: subjects, n (%) ([1]; 3.0 mg/kg IM): 0
- AE Hemoglobin increased: subjects, n (%) ([1]; 3.0 mg/kg IM): 0
- AE Hyperbilirubinemia: subjects, n (%) ([1]; 3.0 mg/kg IM): 1 (5.6%)
- AE Jaundice: subjects, n (%) ([1]; 3.0 mg/kg IM): 0
- AE Leukocytosis: subjects, n (%) ([1]; 3.0 mg/kg IM): 0
- AE Meningitis: subjects, n (%) ([1]; 3.0 mg/kg IM): 0
- AE Oral Candidiasis: subjects, n (%) ([1]; 3.0 mg/kg IM): 0
- AE Rash neonatal: subjects, n (%) ([1]; 3.0 mg/kg IM): 1 (5.6%)
- AE Rash papular: subjects, n (%) ([1]; 3.0 mg/kg IM): 0
- AE Rash: subjects, n (%) ([1]; 3.0 mg/kg IM): 0
- AE Seborrhoeic dermatitis: subjects, n (%) ([1]; 3.0 mg/kg IM): 1 (5.6%)
- AE Serum Glucose decreased: subjects, n (%) ([1]; 3.0 mg/kg IM): 1 (5.6%)
- AE Serum sodium increased: subjects, n (%) ([1]; 3.0 mg/kg IM): 1 (5.6%)
- AE Skin exfoliation: subjects, n (%) ([1]; 3.0 mg/kg IM): 0
- AE Thrombocytopenia: subjects, n (%) ([1]; 3.0 mg/kg IM): 0
- AE Umbilical Hernia: subjects, n (%) ([1]; 3.0 mg/kg IM): 1 (5.6%)
- AE Vomiting: subjects, n (%) ([1]; 3.0 mg/kg IM): 0
- Total AEs ([1]; 3.0 mg/kg IM, N = 18): 16
- serious adverse event Anemia: Outcome ([1]; 3.0 mg/kg, Rh incompatibility, required transfusion): Resolved
- # of subjects one AE, n (%) ([1]; 4.5 mg/kg IM): 3 (37.5%)
- AE Anal Abscess: subjects, n (%) ([1]; 4.5 mg/kg IM): 0
- AE Anemia: subjects, n (%) ([1]; 4.5 mg/kg IM): 1 (12.5%)
- AE Bradycardia: subjects, n (%) ([1]; 4.5 mg/kg IM): 1 (12.5%)
- AE CO2 decreased: subjects, n (%) ([1]; 4.5 mg/kg IM): 0
- AE CRP increased: subjects, n (%) ([1]; 4.5 mg/kg IM): 0
- AE Contusion: subjects, n (%) ([1]; 4.5 mg/kg IM): 0
- AE Depressed level consciousness: subjects, n (%) ([1]; 4.5 mg/kg IM): 1 (12.5%)
- AE Diaper dermatitis: subjects, n (%) ([1]; 4.5 mg/kg IM): 0
- AE Erythema toxicum: subjects, n (%) ([1]; 4.5 mg/kg IM): 0
- AE Erythema: subjects, n (%) ([1]; 4.5 mg/kg IM): 1 (12.5%)
- AE Flushing: subjects, n (%) ([1]; 4.5 mg/kg IM): 0
- AE Hemangioma: subjects, n (%) ([1]; 4.5 mg/kg IM): 0
- AE Hemoglobin increased: subjects, n (%) ([1]; 4.5 mg/kg IM): 1 (12.5%)
- AE Hyperbilirubinemia: subjects, n (%) ([1]; 4.5 mg/kg IM): 0
- AE Jaundice: subjects, n (%) ([1]; 4.5 mg/kg IM): 0
- AE Leukocytosis: subjects, n (%) ([1]; 4.5 mg/kg IM): 1 (12.5%)
- AE Meningitis: subjects, n (%) ([1]; 4.5 mg/kg IM): 1 (12.5%)
- AE Oral Candidiasis: subjects, n (%) ([1]; 4.5 mg/kg IM): 0
- AE Rash neonatal: subjects, n (%) ([1]; 4.5 mg/kg IM): 0
- AE Rash papular: subjects, n (%) ([1]; 4.5 mg/kg IM): 0
- AE Rash: subjects, n (%) ([1]; 4.5 mg/kg IM): 0
- AE Seborrhoeic dermatitis: subjects, n (%) ([1]; 4.5 mg/kg IM): 0
- AE Serum Glucose decreased: subjects, n (%) ([1]; 4.5 mg/kg IM): 0
- AE Serum sodium increased: subjects, n (%) ([1]; 4.5 mg/kg IM): 0
- AE Skin exfoliation: subjects, n (%) ([1]; 4.5 mg/kg IM): 0
- AE Thrombocytopenia: subjects, n (%) ([1]; 4.5 mg/kg IM): 1 (12.5%)
- AE Umbilical Hernia: subjects, n (%) ([1]; 4.5 mg/kg IM): 0
- AE Vomiting: subjects, n (%) ([1]; 4.5 mg/kg IM): 0
- Total AEs ([1]; 4.5 mg/kg IM, N = 8): 8
- serious adverse event Meningitis: Outcome ([1]; 4.5 mg/kg, negative cultures): Resolved
- subjects who experienced at least 1 TEAE ([1]; each treatment group): Greater than 30%
- incidence of TEAEs, 3 stannsoporfin treatment groups versus placebo ([1]; final data): no statistically significant differences
- T1/2 ([2]; 1.5 mg/kg IM): 5.46 h
- Tmax ([2]; 1.5 mg/kg IM): 1.87 h
- T1/2 ([2]; 3.0 mg/kg IM): 10.7 h
- Tmax ([2]; 3.0 mg/kg IM): 1.52 h
- T1/2 ([2]; 4.5 mg/kg IM): 9.86 h
- Tmax ([2]; 4.5 mg/kg IM): 2.3 h
- T1/2, Mean of the three doses ([2]; 1.5, 3.0 and 4.5 mg/kg IM): 8.6 h
- Tmax, Mean of the three doses ([2]; 1.5, 3.0 and 4.5 mg/kg IM): 1.89 h
- increase in Cmax with dose ([2]; 1.5 to 4.5 mg/kg dose range): dose-proportional increase
- elimination half-life ([2]; IM injection, final data): approximately 10 hours
- time of peak plasma concentrations post-treatment ([2]; IM injection, final data): ≤ 1 h
- time plasma stannsoporfin concentrations measurable post treatment ([2]; all subjects at doses of 3 mg/kg and above): at least 48 hours
- intersubject variability in Cmax and AUCs ([2]; neonates, IM): ≤ 30%
